Experimental data from patent publication US12459932B2, “KIF18A inhibitors” (AMGEN INC., priority 2018, dated 2025).

biological target: T1, Recombinant human KIF18A (1-467 His-tagged) (Homo sapiens, UniProt Q8NI77); experiment: KIF18A Enzyme Assay: microtubule-stimulated ATPase activity (ADP-Glo); assay type: biochemical; conditions: 30 nM KIF18A, 30 μg/mL pig microtubules, ATP 75 μM (Km), ADP-Glo luminescence
T1 construct: Recombinant human KIF18A (1-467 His-tagged) protein; His
Procedure, shortened: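 Measures microtubule-stimulated ATPase activity as ADP formed, detected by luminescence. Compounds were tested as 2-fold serial dilutions over 22 points. IC50 values came from four-parameter logistic fits.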

T1 sequence (Q8NI77 1-467): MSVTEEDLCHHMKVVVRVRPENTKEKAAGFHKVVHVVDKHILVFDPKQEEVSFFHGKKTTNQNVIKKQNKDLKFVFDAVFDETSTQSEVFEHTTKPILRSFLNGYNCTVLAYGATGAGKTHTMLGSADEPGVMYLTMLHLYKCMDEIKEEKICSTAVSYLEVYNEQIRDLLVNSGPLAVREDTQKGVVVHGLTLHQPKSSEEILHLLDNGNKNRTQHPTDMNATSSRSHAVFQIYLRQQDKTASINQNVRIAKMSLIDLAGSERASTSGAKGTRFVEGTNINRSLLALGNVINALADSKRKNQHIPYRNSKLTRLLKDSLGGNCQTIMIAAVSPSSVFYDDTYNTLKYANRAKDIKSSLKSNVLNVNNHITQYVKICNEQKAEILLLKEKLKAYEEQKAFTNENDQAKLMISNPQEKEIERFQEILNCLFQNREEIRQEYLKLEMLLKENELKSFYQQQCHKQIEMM
T1 sequence (P02550 whole entry partner): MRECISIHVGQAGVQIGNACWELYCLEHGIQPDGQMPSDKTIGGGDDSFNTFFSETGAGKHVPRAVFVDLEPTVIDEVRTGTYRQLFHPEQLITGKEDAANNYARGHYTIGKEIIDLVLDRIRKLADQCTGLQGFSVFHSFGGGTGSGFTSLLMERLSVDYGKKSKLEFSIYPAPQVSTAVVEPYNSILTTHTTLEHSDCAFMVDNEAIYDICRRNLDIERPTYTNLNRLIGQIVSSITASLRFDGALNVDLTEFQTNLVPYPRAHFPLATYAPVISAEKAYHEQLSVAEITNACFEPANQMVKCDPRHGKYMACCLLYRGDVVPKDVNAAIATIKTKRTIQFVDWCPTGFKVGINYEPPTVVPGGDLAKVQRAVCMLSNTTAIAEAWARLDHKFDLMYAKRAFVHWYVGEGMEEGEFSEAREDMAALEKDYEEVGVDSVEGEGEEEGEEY
T1 sequence (P02554 whole entry partner): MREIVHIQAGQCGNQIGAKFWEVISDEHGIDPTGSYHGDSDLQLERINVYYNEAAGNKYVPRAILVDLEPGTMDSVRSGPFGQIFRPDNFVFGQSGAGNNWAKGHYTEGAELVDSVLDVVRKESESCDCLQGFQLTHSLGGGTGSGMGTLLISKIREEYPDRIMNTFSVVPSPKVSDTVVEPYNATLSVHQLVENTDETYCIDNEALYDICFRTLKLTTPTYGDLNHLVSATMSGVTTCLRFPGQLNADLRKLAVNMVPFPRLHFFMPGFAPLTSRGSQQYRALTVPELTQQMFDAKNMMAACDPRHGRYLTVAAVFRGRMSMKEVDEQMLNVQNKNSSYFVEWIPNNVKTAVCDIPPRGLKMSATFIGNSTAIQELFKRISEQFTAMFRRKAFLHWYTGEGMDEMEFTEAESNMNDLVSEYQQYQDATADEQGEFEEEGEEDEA

Compound	IC50 [nM]
CC1(S(=O)(=O)Nc2ccc(C(=O)Nc3cccc(N4CCO[C@H](CO)C4)n3)c(N3CCC4(CC3)CC4)c2)CC1 [Example 3-12, (S)-N-(6-(2-(Hydroxymethyl)morpholino)pyridin-2-yl)-4-((1-methylcyclopropane)-1-sulfonamido)-2-(6-azaspiro[2.5]octan-6-yl)benzamide]	81
Cc1cc(NC(=O)c2ccc(NS(=O)(=O)C3COC3)cc2N2CCC3(CC2)CC3)nc(N2CCC(F)(F)CC2)c1 [Example 7-11, N-(6-(4,4-Difluoropiperidin-1-yl)-4-methylpyridin-2-yl)-4-(oxetane-3-sulfonamido)-2-(6-azaspiro[2.5]octan-6-yl)benzamide]	81
C[C@@H]1CN(c2cc(C(F)(F)F)cc(NC(=O)c3ccc(NS(=O)(=O)CCO)cc3N3CCC4(CC3)CC4)n2)CCO1 [Example 20, (R)-4-((2-Hydroxyethyl)sulfonamido)-N-(6-(2-methylmorpholino)-4-(trifluoromethyl)pyridin-2-yl)-2-(6-azaspiro[2.5]octan-6-yl)benzamide]	93
C[C@@H]1CN(c2cccc(NC(=O)c3ccc(NS(=O)(=O)C4(F)CC4)cc3N3CCC4(CC3)CC4)n2)CCO1 [Example 7-15, (R)-4-((1-Fluorocyclopropane)-1-sulfonamido)-N-(6-(2-methylmorpholino)pyridin-2-yl)-2-(6-azaspiro[2.5]octan-6-yl)benzamide]	90
C[C@@H]1CN(c2cccc(NC(=O)c3ccc(NS(=O)(=O)C(F)F)cc3N3CCC4(CC3)CC4)n2)CCO1 [Example 7-7, (R)-4-((Difluoromethyl)sulfonamido)-N-(6-(2-methylmorpholino)pyridin-2-yl)-2-(6-azaspiro[2.5]octan-6-yl)benzamide]	49
CNS(=O)(=O)c1ccc(C(=O)Nc2cccc(N3CCO[C@H](C)C3)n2)c(N2CCC3(CC2)CC3)c1 [Example 1-3, (R)-N-(6-(2-Methylmorpholino)pyridin-2-yl)-4-(N-methylsulfamoyl)-2-(6-azaspiro[2.5]octan-6-yl)benzamide]	44
C[C@@H]1CN(c2cccc(NC(=O)c3ccc(S(=O)(=O)N4CC(C)(C#N)C4)cc3N3CCC4(CC3)CC4)n2)CCO1 [Example 1-12, (R)-4-((3-Cyano-3-methylazetidin-1-yl)sulfonyl)-N-(6-(2-methylmorpholino)pyridin-2-yl)-2-(6-azaspiro[2.5]octan-6-yl)benzamide]	458
Cc1cc(NC(=O)c2ccc(NS(=O)(=O)C3(C)CC3)cc2N2CCC3(CC2)CC3)nc(N2CCC(F)(F)CC2)c1 [Example 4-10, N-(6-(4,4-Difluoropiperidin-1-yl)-4-methylpyridin-2-yl)-4-((1-methylcyclopropane)-1-sulfonamido)-2-(6-azaspiro[2.5]octan-6-yl)benzamide]	95
CCS(=O)(=O)Nc1ccc(C(=O)Nc2cc(C)cc(N3CCO[C@H](C)C3)n2)c(N2CCC3(CC2)CC3)c1 [Example 7-8, (R)-4-(Ethylsulfonamido)-N-(4-methyl-6-(2-methylmorpholino)pyridin-2-yl)-2-(6-azaspiro[2.5]octan-6-yl)benzamide]	72
Cc1cc(NC(=O)c2ccc(NS(=O)(=O)C3(CO)CC3)cc2N2CCC3(CC2)CC3)nc(N2CC(F)(F)C2)c1 [Example 10-2, N-(6-(3,3-Difluoroazetidin-1-yl)-4-methylpyridin-2-yl)-4-((1-(hydroxymethyl)cyclopropane)-1-sulfonamido)-2-(6-azaspiro[2.5]octan-6-yl)benzamide]	76
C[C@@H]1CN(c2cccc(NC(=O)c3ccc(NS(=O)(=O)CCC(F)(F)F)cc3N3CCC4(CC3)CC4)n2)CCO1 [Example 7-14, (R)-N-(6-(2-Methylmorpholino)pyridin-2-yl)-2-(6-azaspiro[2.5]octan-6-yl)-4-((3,3,3-trifluoropropyl)sulfonamido)benzamide]	343
O=C(Nc1cncc(N2CCC(F)(F)CC2)n1)c1ccc(NS(=O)(=O)CCO)cc1N1CCC2(CC1)CC2 [Example 7-44, N-(6-(4,4-Difluoropiperidin-1-yl)pyrazin-2-yl)-4-((2-hydroxyethyl)sulfonamido)-2-(6-azaspiro[2.5]octan-6-yl)benzamide]	16
CCC(CO)NS(=O)(=O)c1ccc(C(=O)Nc2cccc(N3CCO[C@H](C)C3)n2)c(N2CCC3(CC2)CC3)c1 (stereo partly drawn) [Example 1-9, 4-(N-(1-Hydroxybutan-2-yl)sulfamoyl)-N-(6-((R)-2-methylmorpholino)pyridin-2-yl)-2-(6-azaspiro[2.5]octan-6-yl)benzamide]	120
C[C@@H]1CN(c2cccc(NC(=O)c3ccc([S@@](=N)(=O)C(C)(C)C)cc3N3CCC4(CC3)CC4)n2)CCO1 (single isomer, unassigned) [Example 13-2]	182
Cc1cc(NC(=O)c2ccc(NS(=O)(=O)C3CC3)cc2N2CCC3(CC2)CC3)nc(N2CCC(F)(F)CC2)c1 [Example 7-25, 4-(Cyclopropanesulfonamido)-N-(6-(4,4-difluoropiperidin-1-yl)-4-methylpyridin-2-yl)-2-(6-azaspiro[2.5]octan-6-yl)benzamide]	39
C[C@@H](CO)S(=O)(=O)Nc1ccc(C(=O)Nc2cccc(N3CC(F)C3)n2)c(N2CCC3(CC2)CC3)c1 (single isomer, unassigned) [Example 9-2]	47.2

Compound	IC50 [nM]
Cc1cc(NC(=O)c2ccc([S@](=N)(=O)C3CC3)cc2N2CCC3(CC2)CC3)nc(N2CCC(F)(F)CC2)c1 (single isomer, unassigned) [Example 30-1, 2-(6-Azaspiro[2.5]octan-6-yl)-4-(S-cyclopropylsulfonimidoyl)-N-(6-(4,4-difluoro-1-piperidinyl)-4-methyl-2-pyridinyl)benzamide]	81
CC(C)(C)NS(=O)(=O)c1ccc(C(=O)Nc2cccc(NC3(CO)COC3)n2)c(N2CCC3(CC2)CC3)c1 [Example 3-4, 4-(N-(tert-Butyl)sulfamoyl)-N-(6-((3-(hydroxymethyl)oxetan-3-yl)amino)pyridin-2-yl)-2-(6-azaspiro[2.5]octan-6-yl)benzamide]	149
C[C@H]1CN(c2cccc(NC(=O)c3ccc(NS(=O)(=O)CCO)cc3N3CCC4(CC3)CC4)n2)CCO1 [Example 7-13, (S)-4-((2-Hydroxyethyl)sulfonamido)-N-(6-(2-methylmorpholino)pyridin-2-yl)-2-(6-azaspiro[2.5]octan-6-yl)benzamide]	46
C[C@@H](CO)S(=O)(=O)Nc1ccc(C(=O)Nc2cccc(OCCC(F)(F)F)n2)c(N2CCC3(CC2)CC3)c1 (single isomer, unassigned) [Example 8-2]	14
C[C@@H]1CN(c2cccc(NC(=O)c3ccc(NS(=O)(=O)CF)cc3N3CCC4(CC3)CC4)n2)CCO1 [Example 7-38, (R)-4-((Fluoromethyl)sulfonamido)-N-(6-(2-methylmorpholino)pyridin-2-yl)-2-(6-azaspiro[2.5]octan-6-yl)benzamide]	48
C[C@@H](CO)S(=O)(=O)Nc1ccc(C(=O)Nc2cccc(N3CC(F)(F)C3)n2)c(N2CCC3(CC2)CC3)c1 (single isomer, unassigned) [Example 9-4]	68
Cc1cc(NC(=O)c2ccc(NS(=O)(=O)CCO)cc2N2CCC3(CC2)CC3)nc(N2CC(F)(F)C2)c1 [Example 11, N-(6-(3,3-Difluoroazetidin-1-yl)-4-methylpyridin-2-yl)-4-((2-hydroxyethyl)sulfonamido)-2-(6-azaspiro[2.5]octan-6-yl)benzamide]	31
Cc1cc(NC(=O)c2ccc(NS(=O)(=O)CF)cc2N2CCC3(CC2)CC3)nc(N2CCO[C@H](C)C2)c1 [Example 7-36, (R)-4-((Fluoromethyl)sulfonamido)-N-(4-methyl-6-(2-methylmorpholino)pyridin-2-yl)-2-(6-azaspiro[2.5]octan-6-yl)benzamide]	62
CC(C)(C)NS(=O)(=O)c1cccc(NC(=O)c2ccc(S(C)(=O)=O)cc2N2CCC3(CC2)CC3)n1 [Example 4-8, N-(6-(N-(tert-Butyl)sulfamoyl)pyridin-2-yl)-4-(methylsulfonyl)-2-(6-azaspiro[2.5]octan-6-yl)benzamide]	76
CC1(S(=O)(=O)Nc2ccc(C(=O)Nc3cccc(N4CCc5cc(Cl)ccc54)n3)c(N3CCC4(CC3)CC4)c2)CC1 [Example 3-15, N-(6-(5-Chloroindolin-1-yl)pyridin-2-yl)-4-((1-methylcyclopropane)-1-sulfonamido)-2-(6-azaspiro[2.5]octan-6-yl)benzamide]	33
O=C(Nc1cccc(OCCC(F)(F)F)n1)c1ccc(S(=O)(=O)NCCO)cc1N1CCC2(CC1)CC2 [Example 1, 4-(N-(2-Hydroxyethyl)sulfamoyl)-2-(6-azaspiro[2.5]octan-6-yl)-N-(6-(3,3,3-trifluoropropoxy)pyridin-2-yl)benzamide]	12
Cc1cc(NC(=O)c2ccc(NS(=O)(=O)[C@@H](C)CO)cc2N2CCC3(CC2)CC3)nc(N2CC(F)(F)C2)c1 (single isomer, unassigned) [Example 9-6]	57
Cc1cc(NC(=O)c2ccc(NS(=O)(=O)[C@H](C)CO)cc2N2CCC3(CC2)CC3)nc(N2CCOCC2)c1 (single isomer, unassigned) [Example 9-13]	18
Cc1cc(NC(=O)c2ccc(NS(=O)(=O)C(C)C)cc2N2CCC3(CC2)CC3)nc(N2CC(F)(F)C2)c1 [Example 7-28, N-(6-(3,3-Difluoroazetidin-1-yl)-4-methylpyridin-2-yl)-4-((1-methylethyl)sulfonamido)-2-(6-azaspiro[2.5]octan-6-yl)benzamide]	68
CC1(S(=O)(=O)Nc2ccc(C(=O)Nc3cccc(N4CCC(F)(F)CC4)n3)c(N3CCC4(CC3)CC4)c2)CC1 [Example 4-9, N-(6-(4,4-Difluoropiperidin-1-yl)pyridin-2-yl)-4-((1-methylcyclopropane)-1-sulfonamido)-2-(6-azaspiro[2.5]octan-6-yl)benzamide]	46
Cc1cc(NC(=O)c2ccc(NS(=O)(=O)[C@H](C)CO)cc2N2CCC3(CC2)CC3)nc(N2CCC(F)(F)CC2)c1 (single isomer, unassigned) [Example 9-8]	38
